Experimental data as given in patent US11426375B2, “Substituted bisphenyl butanoic ester derivatives as NEP inhibitors” (NOVARTIS AG, priority 2019, dated 2022).

Key:
[1] = set-up: species or system Sprague Dawley rats; settings: rat, in vivo, po, 10 mg/kg
Experimental: A parallel study design consisting of four groups with three animals per group was conducted to examine the pharmacokinetic properties of the compounds of the present disclosure.
The drugs were administered to each group are as follows: compound I-1 (Group 1), compound I-2 (Group 2), compound I-3 (Group 3), and AHU377 (sacubitril) (Group 4). Each animal received a single 10 mg/kg (5 ml/kg) oral gavage dose of the specified study drug. The animal weights ranged from […] at the beginning of the study. Compound I-1, compound I-2, compound I-3, and AHU377 were formulated in 0.5% methylcellulose (400 cp) and 0.1% Tween 80 (w,v) in water was used as the vehicle. Water bath sonication was applied to facilitate dispersing for all four study drugs. Blood samples for pharmacokinetics analysis were collected at t=0.25, 0.5, 1, 2, 4, 8, and 24 hours (±5%) post dose administration. Plasma was prepared by collecting whole blood samples into tubes containing EDTA and NaF (final concentrations: ˜1 mg/mL (K2EDTA) and ˜2 mg/mL (NaF)). These tubes were kept in an ice bath prior to centrifugation at approximately 2,000 rcf for 10 minutes at approximately 5° C. To each resultant plasma sample, 50% phosphoric acid (v/v) was added to achieve a final concentration of 1% (v,v).
[^13C4]-LBQ657 was added as an internal standard to the pharmacokinetic (PK) samples and calibration standards prior to analysis by LC-MS/MS. The LC-MS system consisted of an API6500+ mass spectrometer coupled to an Agilent 1290 HPLC system equipped with a CTC Pal autosampler. The mass spectrometer was operated in the positive ion mode with a TESI ion source.

[2] = Hygroscopicity, weight gain at 90% RH; format: physicochemical; settings: after exposure to 90% RH
Source text: The weight gain of compound I-1 after exposure to 90% RH (relatively humidity) was 0.34%, while that of AHU377 under the same conditions was 3.4%. […] On the other hand, AHU377 is a wax-like solid, which needs to be properly processed before further pharmaceutical processing such as weighing, dispensing and filling.

Compound: CCOC(=O)[C@H](C)C[C@@H](Cc1ccc(-c2ccccc2)cc1)NC(=O)CCC(=O)N[C@@H](CC(C)C)C(=O)O [Compound I-1, (4-(((2S,4R)-1-([1,1′-biphenyl]-4-yl)-5-ethoxy-4-methyl-5-oxopentan-2-yl)amino)-4-oxobutanoyl)-L-leucine]
- LBQ657 concentration-time profile ([1]; male, Sprague-Dawley): flattened relative to AHU377
- conversion to LBQ657 ([1]; male, Sprague-Dawley): nearly complete conversion to LBQ657
- LBQ657 exposure (based on AUC values) [1]: did not decrease relative to that of AHU377
- tolerability [1]: very well tolerated
- weight gain (hygroscopicity) [2]: 0.34%
